Data published in ChEMBL document CHEMBL4311939, “Design and evaluation of novel tetracyclic benzofurans as palm site allosteric inhibitors of HCV NS5B polymerase” (Bioorg Med Chem Lett, 2019).
Values after ≈ are worked out from the molar mass of the structure shown.

Assays:
[1] = Apparent permeability in dog MDCK cells; format: ADME, cell-based, Canis lupus familiaris
[2] = Half life in rat at 1 mg/kg, iv; format: ADME, organism-based; settings: in vivo
[3] = Cmax in monkey at 3 mg/kg, po; format: ADME, organism-based, Macaca mulatta; set-up: dose 3 mg/kg, route oral; settings: rhesus monkey, in vivo
[4] = Cmax in rat at 5 mg/kg, po; format: ADME, organism-based; set-up: dose 5 mg/kg, route oral; settings: in vivo
[5] = AUC in dog at 2 mg/kg, po; format: ADME, organism-based, Canis lupus familiaris; settings: in vivo
[6] = Solubility of the compound in FaSSIF using crystalline sample; format: physicochemical
[7] = Half life in monkey at 1 mg/kg, iv; format: ADME, organism-based, Macaca mulatta; settings: rhesus monkey, in vivo
[8] = target: T1, Nuclear receptor subfamily 1 group I member 2 (Homo sapiens, UniProt O75469); assay: Transactivation of PXR (unknown origin); format: ADME
T1 sequence (O75469 whole entry): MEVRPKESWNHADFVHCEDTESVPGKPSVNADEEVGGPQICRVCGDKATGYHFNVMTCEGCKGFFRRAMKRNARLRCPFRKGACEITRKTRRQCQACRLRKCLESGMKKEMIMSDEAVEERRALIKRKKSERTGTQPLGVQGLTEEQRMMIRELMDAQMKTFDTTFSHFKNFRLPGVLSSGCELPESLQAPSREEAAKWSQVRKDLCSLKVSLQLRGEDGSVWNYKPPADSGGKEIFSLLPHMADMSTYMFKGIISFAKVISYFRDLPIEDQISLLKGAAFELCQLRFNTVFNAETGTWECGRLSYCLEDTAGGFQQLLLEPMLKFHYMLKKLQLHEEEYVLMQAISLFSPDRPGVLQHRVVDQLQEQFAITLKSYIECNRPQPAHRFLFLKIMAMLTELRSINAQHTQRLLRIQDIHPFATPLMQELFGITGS

[9] = target: Sodium channel protein type 5 subunit alpha (Homo sapiens, UniProt Q14524); assay: Inhibition of Nav1.5 (unknown origin)
[10] = Clearance in dog at 0.5 mg/kg, iv; format: ADME, organism-based, Canis lupus familiaris; settings: in vivo
[11] = Drug concentration in dog plasma at 2 mg/kg, po after 24 hrs; format: ADME, organism-based, Canis lupus familiaris
[12] = Cmax in dog at 2 mg/kg, po; format: ADME, organism-based, Canis lupus familiaris; set-up: dose 2 mg/kg, route oral; settings: in vivo
Cytochrome P450 3A4 = Cytochrome P450 3A4 (Homo sapiens, UniProt P08684); assay: Inhibition of CYP3A4 (unknown origin); format: ADME
[13] = target: Voltage-dependent L-type calcium channel subunit alpha-1C (Homo sapiens, UniProt Q13936); assay: Inhibition of Cav1.2 (unknown origin)
[14] = Drug concentration in rat plasma at 5 mg/kg, po after 24 hrs; format: ADME, organism-based
[15] = Clearance in monkey at 1 mg/kg, iv; format: ADME, organism-based, Macaca mulatta; settings: rhesus monkey, in vivo
[16] = Oral bioavailability in dog at 2 mg/kg; format: ADME, organism-based, Canis lupus familiaris; settings: in vivo
[17] = Clearance in rat at 1 mg/kg, iv; format: ADME, organism-based; settings: in vivo
[18] = Oral bioavailability in monkey at 3 mg/kg; format: ADME, organism-based, Macaca mulatta; settings: rhesus monkey, in vivo
[19] = AUC in rat at 5 mg/kg, po; format: ADME, organism-based; settings: in vivo
[20] = Oral bioavailability in rat at 5 mg/kg; format: ADME, organism-based; settings: in vivo
[21] = Drug concentration in monkey plasma at 3 mg/kg, po after 24 hrs; format: ADME, organism-based, Macaca mulatta; settings: rhesus monkey
[22] = Half life in dog at 0.5 mg/kg, iv; format: ADME, organism-based, Canis lupus familiaris; settings: in vivo
[23] = target: Voltage-gated inwardly rectifying potassium channel KCNH2 (Homo sapiens, UniProt Q12809); assay: Inhibition of human ERG by patch clamp assay
[24] = AUC in monkey at 3 mg/kg, po; format: ADME, organism-based, Macaca mulatta; settings: rhesus monkey, in vivo
[25] = Drug metabolism in solvent assessed as oxidation by measuring cpd 1 formation under air exposure
[26] = Tmax in rat at 5 mg/kg, po; format: ADME, organism-based; settings: in vivo
[27] = AUC in rat at 100 mg/kg, po using spray dry sample; format: ADME, organism-based; settings: in vivo
[28] = Cmax in rat at 10 mg/kg, po using spray dry sample; format: ADME, organism-based; set-up: dose 10 mg/kg, route oral; settings: in vivo
[29] = Cmax in rat at 650 mg/kg, po using spray dry sample; format: ADME, organism-based; set-up: dose 650 mg/kg, route oral; settings: in vivo
[30] = AUC in rat at 10 mg/kg, po using spray dry sample; format: ADME, organism-based; settings: in vivo
[31] = AUC in rat at 650 mg/kg, po using spray dry sample; format: ADME, organism-based; settings: in vivo
[32] = Cmax in rat at 100 mg/kg, po using spray dry sample; format: ADME, organism-based; set-up: dose 100 mg/kg, route oral; settings: in vivo
[33] = AUC in rat at 300 mg/kg, po using spray dry sample; format: ADME, organism-based; settings: in vivo
[34] = Cmax in rat at 300 mg/kg, po using spray dry sample; format: ADME, organism-based; set-up: dose 300 mg/kg, route oral; settings: in vivo
[35] = AUC in rat at 100 mg/kg, po using conventional sample; format: ADME, organism-based; settings: in vivo

Chain of Voltage-gated inwardly rectifying potassium channel KCNH2 (Q12809 whole entry): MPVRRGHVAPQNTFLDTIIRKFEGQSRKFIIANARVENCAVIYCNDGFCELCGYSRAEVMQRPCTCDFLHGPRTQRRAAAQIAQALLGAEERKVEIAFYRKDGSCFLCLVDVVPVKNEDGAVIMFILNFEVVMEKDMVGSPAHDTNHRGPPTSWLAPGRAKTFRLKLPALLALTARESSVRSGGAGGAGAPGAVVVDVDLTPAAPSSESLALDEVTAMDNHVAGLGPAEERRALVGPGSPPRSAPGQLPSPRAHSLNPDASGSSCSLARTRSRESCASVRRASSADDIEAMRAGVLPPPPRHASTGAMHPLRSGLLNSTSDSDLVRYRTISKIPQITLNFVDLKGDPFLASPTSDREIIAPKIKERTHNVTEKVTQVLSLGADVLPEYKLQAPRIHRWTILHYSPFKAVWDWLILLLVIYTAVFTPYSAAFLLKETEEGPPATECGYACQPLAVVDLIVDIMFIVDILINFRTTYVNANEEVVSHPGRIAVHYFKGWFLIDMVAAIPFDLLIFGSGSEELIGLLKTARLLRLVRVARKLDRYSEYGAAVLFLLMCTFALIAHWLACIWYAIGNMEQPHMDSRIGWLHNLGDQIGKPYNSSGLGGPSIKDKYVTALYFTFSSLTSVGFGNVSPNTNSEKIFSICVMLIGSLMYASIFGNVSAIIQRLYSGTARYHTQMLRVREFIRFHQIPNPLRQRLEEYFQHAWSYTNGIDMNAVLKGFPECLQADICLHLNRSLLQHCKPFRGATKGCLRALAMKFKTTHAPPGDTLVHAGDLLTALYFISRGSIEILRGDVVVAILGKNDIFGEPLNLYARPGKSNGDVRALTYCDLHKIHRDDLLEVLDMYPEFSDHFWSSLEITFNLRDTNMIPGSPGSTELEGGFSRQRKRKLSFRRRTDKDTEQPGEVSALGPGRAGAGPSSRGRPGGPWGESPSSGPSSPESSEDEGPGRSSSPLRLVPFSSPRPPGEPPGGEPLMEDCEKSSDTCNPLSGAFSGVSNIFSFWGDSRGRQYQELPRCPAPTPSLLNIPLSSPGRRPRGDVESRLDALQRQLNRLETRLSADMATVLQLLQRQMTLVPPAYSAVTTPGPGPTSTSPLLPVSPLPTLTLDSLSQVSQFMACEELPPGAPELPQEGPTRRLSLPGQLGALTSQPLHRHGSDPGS
Chain of Voltage-dependent L-type calcium channel subunit alpha-1C (Q13936 whole entry): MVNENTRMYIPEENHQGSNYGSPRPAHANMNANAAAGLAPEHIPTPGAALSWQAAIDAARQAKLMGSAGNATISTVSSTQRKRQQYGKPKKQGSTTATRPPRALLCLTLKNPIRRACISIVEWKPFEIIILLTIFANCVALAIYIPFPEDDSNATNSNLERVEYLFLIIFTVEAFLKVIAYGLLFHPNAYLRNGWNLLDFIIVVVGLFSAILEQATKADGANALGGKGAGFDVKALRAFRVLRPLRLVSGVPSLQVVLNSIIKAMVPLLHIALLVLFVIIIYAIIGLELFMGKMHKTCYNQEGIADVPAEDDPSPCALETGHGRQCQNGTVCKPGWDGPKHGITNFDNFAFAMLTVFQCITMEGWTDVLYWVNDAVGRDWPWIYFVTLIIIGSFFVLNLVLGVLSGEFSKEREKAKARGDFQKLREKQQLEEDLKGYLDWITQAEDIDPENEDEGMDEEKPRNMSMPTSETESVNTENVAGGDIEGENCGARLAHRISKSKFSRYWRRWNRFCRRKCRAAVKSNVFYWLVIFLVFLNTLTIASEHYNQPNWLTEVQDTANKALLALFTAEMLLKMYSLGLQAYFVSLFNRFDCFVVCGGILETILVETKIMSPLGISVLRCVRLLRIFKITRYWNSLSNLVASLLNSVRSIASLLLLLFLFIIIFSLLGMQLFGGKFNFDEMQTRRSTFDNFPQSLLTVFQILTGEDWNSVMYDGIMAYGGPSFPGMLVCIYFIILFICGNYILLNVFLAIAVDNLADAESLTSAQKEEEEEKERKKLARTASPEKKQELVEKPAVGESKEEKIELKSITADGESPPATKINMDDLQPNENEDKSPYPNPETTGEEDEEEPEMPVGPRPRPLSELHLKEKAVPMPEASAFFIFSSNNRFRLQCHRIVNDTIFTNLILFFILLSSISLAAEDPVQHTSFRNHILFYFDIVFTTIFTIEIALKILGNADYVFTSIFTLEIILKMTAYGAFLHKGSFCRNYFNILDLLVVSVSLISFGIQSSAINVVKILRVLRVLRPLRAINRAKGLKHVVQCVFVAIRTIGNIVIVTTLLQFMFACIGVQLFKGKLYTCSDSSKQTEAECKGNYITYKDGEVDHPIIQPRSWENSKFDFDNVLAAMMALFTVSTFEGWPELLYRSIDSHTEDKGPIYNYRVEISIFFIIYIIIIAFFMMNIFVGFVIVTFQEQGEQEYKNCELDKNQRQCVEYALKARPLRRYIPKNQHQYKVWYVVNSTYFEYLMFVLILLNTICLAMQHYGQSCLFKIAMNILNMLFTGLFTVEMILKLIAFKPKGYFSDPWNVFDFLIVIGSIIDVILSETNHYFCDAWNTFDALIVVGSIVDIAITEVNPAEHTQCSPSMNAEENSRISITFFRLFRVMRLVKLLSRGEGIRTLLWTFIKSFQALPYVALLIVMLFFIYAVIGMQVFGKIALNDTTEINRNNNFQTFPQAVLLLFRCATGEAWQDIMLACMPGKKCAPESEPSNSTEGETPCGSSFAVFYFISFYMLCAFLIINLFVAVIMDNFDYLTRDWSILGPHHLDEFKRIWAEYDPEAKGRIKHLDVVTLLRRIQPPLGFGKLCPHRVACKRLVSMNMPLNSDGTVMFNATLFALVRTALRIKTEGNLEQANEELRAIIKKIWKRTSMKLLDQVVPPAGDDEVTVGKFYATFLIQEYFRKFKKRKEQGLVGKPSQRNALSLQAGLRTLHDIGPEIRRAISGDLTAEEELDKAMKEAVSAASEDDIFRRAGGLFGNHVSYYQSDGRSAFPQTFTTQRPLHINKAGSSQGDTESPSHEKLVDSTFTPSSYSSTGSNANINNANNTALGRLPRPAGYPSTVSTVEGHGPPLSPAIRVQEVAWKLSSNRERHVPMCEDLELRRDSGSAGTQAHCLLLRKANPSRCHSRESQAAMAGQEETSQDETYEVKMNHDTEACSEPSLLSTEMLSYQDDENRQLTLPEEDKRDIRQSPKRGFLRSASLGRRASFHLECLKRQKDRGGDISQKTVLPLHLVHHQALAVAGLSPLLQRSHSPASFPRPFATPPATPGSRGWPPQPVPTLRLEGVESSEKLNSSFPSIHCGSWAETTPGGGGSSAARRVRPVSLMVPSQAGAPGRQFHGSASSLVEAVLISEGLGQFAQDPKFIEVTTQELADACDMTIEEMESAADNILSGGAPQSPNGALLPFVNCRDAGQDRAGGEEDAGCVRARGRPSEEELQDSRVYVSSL
Chain of Cytochrome P450 3A4 (P08684 whole entry): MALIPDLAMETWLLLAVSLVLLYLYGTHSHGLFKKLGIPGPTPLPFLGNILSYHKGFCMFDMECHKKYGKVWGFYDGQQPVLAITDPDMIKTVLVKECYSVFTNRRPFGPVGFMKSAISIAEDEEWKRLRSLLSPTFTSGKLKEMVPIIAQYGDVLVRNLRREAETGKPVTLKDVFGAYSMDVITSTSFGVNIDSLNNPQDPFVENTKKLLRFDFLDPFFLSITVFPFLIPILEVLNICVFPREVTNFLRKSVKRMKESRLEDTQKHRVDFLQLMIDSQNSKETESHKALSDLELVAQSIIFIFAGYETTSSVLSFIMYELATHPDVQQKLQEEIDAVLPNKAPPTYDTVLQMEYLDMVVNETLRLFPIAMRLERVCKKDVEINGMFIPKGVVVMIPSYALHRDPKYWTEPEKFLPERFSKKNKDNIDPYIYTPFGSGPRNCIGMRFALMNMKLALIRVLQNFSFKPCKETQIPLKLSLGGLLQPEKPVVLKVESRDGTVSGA

SMILES	Papp [1] [×10⁻⁶ cm/s]	half-life [2] [h]	Cmax [3] [nM]	Cmax [4] [nM]	AUC [5] [µM·h]	half-life [7] [h]	EC50 [8] [µM]	IC50 [9] [µM]	clearance [10] [mL/min/kg]	concentration at 24 h [11] [nM]	Cmax [12] [nM]	IC50 (Cytochrome P450 3A4) [µM]	IC50 [13] [µM]	concentration at 24 h [14] [nM]	clearance [15] [mL/min/kg]	bioavailability [16] [%]	clearance [17] [mL/min/kg]	bioavailability [18] [%]	AUC [19] [µM·h]	bioavailability [20] [%]	other results
CNC(=O)c1c(-c2ccc(F)cc2)oc2cc(N(C)S(C)(=O)=O)c(-c3ccc4ccn5c6cccc(F)c6cc5c4n3)cc12	< 1.9	16	370	450	6.3	6.6	> 30	> 30	2.6	140	1000	> 50	18	114	5.6	43	4.2	24	7.9	26	solubility thermodynamic [6]: 2.9 µg/mL (≈ 4.75 µM); concentration at 24 h [21]: 31 nM; half-life [22]: 22 h; IC50 [23]: > 30 µM; AUC [24]: 3.5 µM·h
CNC(=O)c1c(-c2ccc(F)cc2)oc2cc(N(C)S(C)(=O)=O)c(-c3ccc4c(n3)-c3cc5c(F)cccc5n3CN4)cc12	8.9	3.8	130	350	2.3	3.9	> 30	> 30	7.9	11	410	> 50	> 30	2.2	7.7	30	16	9.3	1.4	16	Drug metabolism [25]: Metabolite detected; concentration at 24 h [21]: 4 nM; half-life [22]: 4 h; IC50 [23]: > 30 µM; AUC [24]: 1 µM·h
CNC(=O)c1c(-c2ccc(F)cc2)oc2cc(N(C)S(C)(=O)=O)c(-c3cc4n(c(=O)c3)CCn3c-4cc4c(F)cccc43)cc12		4.3		190													17		0.078	1	Tmax [26]: 1 h
CNC(=O)c1c(-c2ccc(F)cc2)oc2cc(N(C)S(C)(=O)=O)c(-c3ccc4c(n3)-c3cc5c(F)cccc5n3CC4)cc12	14.2	12	320	950	9.2	5.9	> 30	> 30	2.9	76	1300	> 50	18	69	11	54	2.3	22	8.8	18	AUC [27]: 100 µM·h; Tmax [26]: 4 h; solubility thermodynamic [6]: 4.7 µg/mL (≈ 7.67 µM); Cmax [28]: 4300 nM; Cmax [29]: 11000 nM; AUC [30]: 37 µM·h; AUC [31]: 181 µM·h; concentration at 24 h [21]: 6.3 nM; half-life [22]: 13 h; Cmax [32]: 8200 nM; IC50 [23]: > 30 µM; AUC [24]: 1.7 µM·h
CNC(=O)c1c(-c2ccc(F)cc2)oc2cc(N(C)S(C)(=O)=O)c(-c3ccc4ncn5c6cccc(F)c6cc5c4n3)cc12	10.2	8.4	660	580	9.4	6.1	> 30	> 30	3.2	130	840	> 50	22	110	4.7	64	8.5	20	5.2	36	AUC [27]: 136 µM·h; solubility thermodynamic [6]: 1.02 µg/mL (≈ 1.67 µM); Cmax [28]: 2700 nM; AUC [33]: 181 µM·h; Cmax [34]: 5600 nM; AUC [30]: 32 µM·h; AUC [35]: 0.67 µM·h; concentration at 24 h [21]: 10 nM; half-life [22]: 17 h; Cmax [32]: 8500 nM; IC50 [23]: > 30 µM; AUC [24]: 3.4 µM·h
CNC(=O)c1c(-c2ccc(F)cc2)oc2cc(N(C)S(C)(=O)=O)c(-c3ccc4c(n3)-c3cc5c(F)cccc5n3C4)cc12		9.6		120										10			5.2		1.1	4	Tmax [26]: 3 h
CNC(=O)c1c(-c2ccc(F)cc2)oc2cc(N(C)S(C)(=O)=O)c(-c3ccc4c(n3)-c3cc5c(F)cccc5n3CO4)cc12 [MK-8876]	7.9																				AUC [27]: 83 µM·h; Cmax [28]: 1500 nM; Cmax [29]: 12000 nM; AUC [30]: 16 µM·h; AUC [31]: 226 µM·h; Cmax [32]: 6700 nM
